ChEMBL document CHEMBL4507273 (2021)
pKi: −log10 of the molar value.

Experiments:
[1] = biological target: Vascular endothelial growth factor receptor 3 (Homo sapiens) (UniProt P35916); conditions: Compound concentration 1000.0 nM
[2] = biological target: Non-receptor tyrosine-protein kinase TNK1 (Homo sapiens) (UniProt Q13470); conditions: Compound concentration 1000.0 nM
[3] = biological target: Serine/threonine-protein kinase 32B (Homo sapiens) (UniProt Q9NY57); conditions: Compound concentration 1000.0 nM
[4] = biological target: Mitogen-activated protein kinase kinase kinase 4 (Homo sapiens) (UniProt Q9Y6R4); conditions: Compound concentration 1000.0 nM
[5] = tested on: Mast/stem cell growth factor receptor Kit (Homo sapiens), P10721 [D816H]; conditions: Compound concentration 1000.0 nM
[6] = biological target: 5-hydroxytryptamine receptor 5A (Homo sapiens, UniProt P47898); assay: GPCRScan assay: inhibition of 5-HT5A; parameters: radioligand conc. used [nm] 2.0 - 3.3, parental cells Flp-In CHO; conditions: for pKi: read-out: Ki; for Ki: read-out: pKi (converted)
[7] = biological target: AP2-associated protein kinase 1 (Homo sapiens) (UniProt Q2M2I8); conditions: Compound concentration 1000.0 nM
[8] = biological target: Serine/threonine-protein kinase pim-2 (Homo sapiens) (UniProt Q9P1W9); conditions: Compound concentration 1000.0 nM
[9] = biological target: Sigma non-opioid intracellular receptor 1 (Homo sapiens) (UniProt Q99720); conditions: Compound concentration 10.0 uM
[10] = biological target: NUAK family SNF1-like kinase 2 (Homo sapiens) (UniProt Q9H093); conditions: Compound concentration 1000.0 nM
[11] = biological target: Serine/threonine-protein kinase SIK2 (Homo sapiens) (UniProt Q9H0K1); conditions: Compound concentration 1000.0 nM
[12] = biological target: Megakaryocyte-associated tyrosine-protein kinase (Homo sapiens) (UniProt P42679); conditions: Compound concentration 1000.0 nM
[13] = biological target: Myosin light chain kinase 2, skeletal/cardiac muscle (Homo sapiens) (UniProt Q9H1R3); conditions: Compound concentration 1000.0 nM
[14] = biological target: T1, Alpha-2C adrenergic receptor (Homo sapiens) (UniProt P18825); conditions: Compound concentration 10.0 uM
T1 sequence (whole entry): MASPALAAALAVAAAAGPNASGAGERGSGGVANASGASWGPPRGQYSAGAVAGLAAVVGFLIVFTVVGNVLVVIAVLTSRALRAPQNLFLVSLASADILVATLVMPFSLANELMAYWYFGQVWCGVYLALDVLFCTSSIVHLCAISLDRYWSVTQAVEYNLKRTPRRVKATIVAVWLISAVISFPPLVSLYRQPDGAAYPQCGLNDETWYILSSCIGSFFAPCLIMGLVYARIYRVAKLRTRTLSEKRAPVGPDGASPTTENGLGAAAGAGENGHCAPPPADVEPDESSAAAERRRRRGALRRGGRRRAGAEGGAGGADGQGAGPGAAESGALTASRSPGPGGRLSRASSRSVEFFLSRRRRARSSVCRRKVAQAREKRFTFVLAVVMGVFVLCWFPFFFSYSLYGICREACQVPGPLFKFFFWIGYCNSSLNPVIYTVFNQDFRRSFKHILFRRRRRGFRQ

[15] = biological target: Serine/threonine-protein kinase N2 (Homo sapiens) (UniProt Q16513); conditions: Compound concentration 1000.0 nM
[16] = biological target: Mitogen-activated protein kinase kinase kinase 10 (Homo sapiens) (UniProt Q02779); conditions: Compound concentration 1000.0 nM
[17] = biological target: Receptor-interacting serine/threonine-protein kinase 1 (Homo sapiens) (UniProt Q13546); conditions: Compound concentration 1000.0 nM
[18] = biological target: Serine/threonine-protein kinase PAK 6 (Homo sapiens) (UniProt Q9NQU5); conditions: Compound concentration 1000.0 nM
[19] = biological target: Serine/threonine-protein kinase 10 (Homo sapiens) (UniProt O94804); conditions: Compound concentration 1000.0 nM
[20] = biological target: Ribosomal protein S6 kinase alpha-4 (Homo sapiens) (UniProt O75676); conditions: Compound concentration 1000.0 nM
[21] = biological target: T2, 5-hydroxytryptamine receptor 2C (Homo sapiens) (UniProt P28335); conditions: Compound concentration 10.0 uM
T2 sequence (whole entry): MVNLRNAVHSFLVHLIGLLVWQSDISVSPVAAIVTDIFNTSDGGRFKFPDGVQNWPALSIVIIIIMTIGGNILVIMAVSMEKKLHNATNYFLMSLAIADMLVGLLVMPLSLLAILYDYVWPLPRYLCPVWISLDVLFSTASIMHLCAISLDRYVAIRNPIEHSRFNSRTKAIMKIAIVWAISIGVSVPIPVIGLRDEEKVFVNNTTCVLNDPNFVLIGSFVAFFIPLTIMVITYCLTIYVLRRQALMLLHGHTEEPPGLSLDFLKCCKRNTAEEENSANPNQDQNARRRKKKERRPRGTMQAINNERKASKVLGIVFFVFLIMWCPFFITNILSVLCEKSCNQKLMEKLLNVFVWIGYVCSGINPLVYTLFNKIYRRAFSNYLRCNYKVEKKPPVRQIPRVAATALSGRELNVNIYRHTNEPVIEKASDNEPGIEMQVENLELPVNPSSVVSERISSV

[22] = biological target: Mitogen-activated protein kinase kinase kinase 11 (Homo sapiens) (UniProt Q16584); conditions: Compound concentration 1000.0 nM
[23] = biological target: Ephrin type-B receptor 3 (Homo sapiens) (UniProt P54753); conditions: Compound concentration 1000.0 nM
[24] = biological target: Serine/threonine-protein kinase TBK1 (Homo sapiens) (UniProt Q9UHD2); conditions: Compound concentration 1000.0 nM
[25] = biological target: Dual specificity mitogen-activated protein kinase kinase 2 (Homo sapiens) (UniProt P36507); conditions: Compound concentration 1000.0 nM
[26] = biological target: MAP kinase-activated protein kinase 5 (Homo sapiens) (UniProt Q8IW41); conditions: Compound concentration 1000.0 nM
[27] = biological target: Serine/threonine-protein kinase 25 (Homo sapiens) (UniProt O00506); conditions: Compound concentration 1000.0 nM
[28] = biological target: 5-hydroxytryptamine receptor 3A (Homo sapiens) (UniProt P46098); conditions: Compound concentration 10.0 uM
[29] = biological target: Serine/threonine-protein kinase N1 (Homo sapiens) (UniProt Q16512); conditions: Compound concentration 1000.0 nM
[30] = biological target: Ribosomal protein S6 kinase alpha-2 (Homo sapiens) (UniProt Q15349); conditions: Compound concentration 1000.0 nM
[31] = biological target: Aurora kinase C (Homo sapiens) (UniProt Q9UQB9); conditions: Compound concentration 1000.0 nM
[32] = biological target: Homeodomain-interacting protein kinase 4 (Homo sapiens) (UniProt Q8NE63); conditions: Compound concentration 1000.0 nM

Sequence of 5-hydroxytryptamine receptor 5A (P47898 whole entry): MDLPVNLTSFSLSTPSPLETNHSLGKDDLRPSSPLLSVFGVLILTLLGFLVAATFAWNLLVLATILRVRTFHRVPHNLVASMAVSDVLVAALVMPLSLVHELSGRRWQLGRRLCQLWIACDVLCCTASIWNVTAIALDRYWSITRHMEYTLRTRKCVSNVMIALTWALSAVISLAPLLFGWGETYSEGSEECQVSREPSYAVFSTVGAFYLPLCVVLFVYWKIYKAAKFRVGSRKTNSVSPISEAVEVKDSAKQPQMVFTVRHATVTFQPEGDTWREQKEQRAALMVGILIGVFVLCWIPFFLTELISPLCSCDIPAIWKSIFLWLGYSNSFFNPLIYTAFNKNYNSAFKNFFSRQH
Sequence of Sigma non-opioid intracellular receptor 1 (Homo sapiens) (Q99720 whole entry): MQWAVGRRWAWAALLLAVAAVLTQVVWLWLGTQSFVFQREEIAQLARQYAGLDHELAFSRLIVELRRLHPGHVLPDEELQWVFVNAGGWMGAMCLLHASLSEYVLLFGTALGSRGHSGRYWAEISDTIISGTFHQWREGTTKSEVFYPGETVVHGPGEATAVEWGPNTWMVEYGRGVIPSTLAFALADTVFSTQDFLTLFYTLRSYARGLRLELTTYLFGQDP
Sequence of Ribosomal protein S6 kinase alpha-2 (Homo sapiens) (Q15349 whole entry): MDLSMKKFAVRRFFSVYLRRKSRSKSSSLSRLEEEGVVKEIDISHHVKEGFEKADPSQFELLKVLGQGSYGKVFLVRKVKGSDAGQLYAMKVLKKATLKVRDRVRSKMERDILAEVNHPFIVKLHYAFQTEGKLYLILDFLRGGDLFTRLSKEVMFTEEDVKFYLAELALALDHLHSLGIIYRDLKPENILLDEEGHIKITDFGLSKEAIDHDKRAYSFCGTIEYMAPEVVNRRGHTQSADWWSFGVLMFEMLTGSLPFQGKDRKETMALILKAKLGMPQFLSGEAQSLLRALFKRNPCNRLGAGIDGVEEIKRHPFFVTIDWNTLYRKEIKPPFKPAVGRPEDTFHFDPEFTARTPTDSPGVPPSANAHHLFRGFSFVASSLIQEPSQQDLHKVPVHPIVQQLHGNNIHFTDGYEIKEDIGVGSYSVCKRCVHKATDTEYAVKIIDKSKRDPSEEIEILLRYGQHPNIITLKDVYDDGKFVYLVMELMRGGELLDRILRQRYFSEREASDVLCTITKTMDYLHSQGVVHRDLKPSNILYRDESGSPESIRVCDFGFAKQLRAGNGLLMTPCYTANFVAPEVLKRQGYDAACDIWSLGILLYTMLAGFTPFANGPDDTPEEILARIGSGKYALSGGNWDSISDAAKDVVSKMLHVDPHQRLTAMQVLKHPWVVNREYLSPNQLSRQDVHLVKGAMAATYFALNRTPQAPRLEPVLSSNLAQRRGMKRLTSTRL
Sequence of Non-receptor tyrosine-protein kinase TNK1 (Homo sapiens) (Q13470 whole entry): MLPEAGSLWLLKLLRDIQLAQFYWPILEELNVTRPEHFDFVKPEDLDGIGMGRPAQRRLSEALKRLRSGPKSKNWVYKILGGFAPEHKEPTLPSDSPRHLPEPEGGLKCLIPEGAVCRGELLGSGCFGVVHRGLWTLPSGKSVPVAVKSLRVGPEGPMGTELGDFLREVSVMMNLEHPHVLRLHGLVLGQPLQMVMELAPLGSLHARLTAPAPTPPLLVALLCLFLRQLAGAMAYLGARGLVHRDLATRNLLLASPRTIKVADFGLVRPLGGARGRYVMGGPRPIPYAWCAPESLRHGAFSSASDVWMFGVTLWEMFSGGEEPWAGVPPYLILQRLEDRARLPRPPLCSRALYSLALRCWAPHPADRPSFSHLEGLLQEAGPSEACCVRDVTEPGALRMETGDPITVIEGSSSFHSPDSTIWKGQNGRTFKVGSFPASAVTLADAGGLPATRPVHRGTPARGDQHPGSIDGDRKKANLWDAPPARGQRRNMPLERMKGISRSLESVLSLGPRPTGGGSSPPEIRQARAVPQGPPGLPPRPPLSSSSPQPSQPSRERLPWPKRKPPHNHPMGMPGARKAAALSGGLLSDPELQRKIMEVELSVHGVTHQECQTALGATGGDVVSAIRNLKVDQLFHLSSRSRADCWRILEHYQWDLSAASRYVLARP
Sequence of Serine/threonine-protein kinase PAK 6 (Homo sapiens) (Q9NQU5 whole entry, looked up): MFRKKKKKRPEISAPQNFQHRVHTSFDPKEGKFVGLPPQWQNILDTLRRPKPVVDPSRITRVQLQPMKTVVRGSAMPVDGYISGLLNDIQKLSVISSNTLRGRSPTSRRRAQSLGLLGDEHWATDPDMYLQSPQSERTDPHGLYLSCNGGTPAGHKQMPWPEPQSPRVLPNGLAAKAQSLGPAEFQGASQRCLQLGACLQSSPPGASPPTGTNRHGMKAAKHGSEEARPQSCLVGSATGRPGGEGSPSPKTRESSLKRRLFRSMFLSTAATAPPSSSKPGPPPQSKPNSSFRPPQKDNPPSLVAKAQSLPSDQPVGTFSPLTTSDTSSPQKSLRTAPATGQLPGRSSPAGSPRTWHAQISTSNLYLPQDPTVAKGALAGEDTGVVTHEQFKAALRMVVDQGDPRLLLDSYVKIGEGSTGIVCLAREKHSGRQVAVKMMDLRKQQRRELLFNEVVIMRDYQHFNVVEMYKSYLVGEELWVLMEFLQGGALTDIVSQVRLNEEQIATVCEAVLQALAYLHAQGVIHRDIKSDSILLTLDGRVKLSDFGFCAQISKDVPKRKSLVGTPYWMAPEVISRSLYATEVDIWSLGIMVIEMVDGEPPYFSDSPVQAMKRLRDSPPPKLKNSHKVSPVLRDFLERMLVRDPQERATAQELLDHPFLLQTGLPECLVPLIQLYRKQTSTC
Sequence of Aurora kinase C (Homo sapiens) (Q9UQB9 whole entry): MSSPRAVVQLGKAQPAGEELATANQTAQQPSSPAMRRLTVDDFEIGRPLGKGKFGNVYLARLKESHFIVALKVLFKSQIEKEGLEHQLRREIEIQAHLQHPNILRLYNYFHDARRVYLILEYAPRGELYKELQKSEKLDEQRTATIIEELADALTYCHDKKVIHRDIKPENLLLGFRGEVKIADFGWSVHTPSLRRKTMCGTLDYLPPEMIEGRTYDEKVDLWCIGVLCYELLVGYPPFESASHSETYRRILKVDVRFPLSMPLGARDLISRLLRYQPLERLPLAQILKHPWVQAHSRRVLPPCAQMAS
Sequence of Serine/threonine-protein kinase SIK2 (Homo sapiens) (Q9H0K1 whole entry, looked up): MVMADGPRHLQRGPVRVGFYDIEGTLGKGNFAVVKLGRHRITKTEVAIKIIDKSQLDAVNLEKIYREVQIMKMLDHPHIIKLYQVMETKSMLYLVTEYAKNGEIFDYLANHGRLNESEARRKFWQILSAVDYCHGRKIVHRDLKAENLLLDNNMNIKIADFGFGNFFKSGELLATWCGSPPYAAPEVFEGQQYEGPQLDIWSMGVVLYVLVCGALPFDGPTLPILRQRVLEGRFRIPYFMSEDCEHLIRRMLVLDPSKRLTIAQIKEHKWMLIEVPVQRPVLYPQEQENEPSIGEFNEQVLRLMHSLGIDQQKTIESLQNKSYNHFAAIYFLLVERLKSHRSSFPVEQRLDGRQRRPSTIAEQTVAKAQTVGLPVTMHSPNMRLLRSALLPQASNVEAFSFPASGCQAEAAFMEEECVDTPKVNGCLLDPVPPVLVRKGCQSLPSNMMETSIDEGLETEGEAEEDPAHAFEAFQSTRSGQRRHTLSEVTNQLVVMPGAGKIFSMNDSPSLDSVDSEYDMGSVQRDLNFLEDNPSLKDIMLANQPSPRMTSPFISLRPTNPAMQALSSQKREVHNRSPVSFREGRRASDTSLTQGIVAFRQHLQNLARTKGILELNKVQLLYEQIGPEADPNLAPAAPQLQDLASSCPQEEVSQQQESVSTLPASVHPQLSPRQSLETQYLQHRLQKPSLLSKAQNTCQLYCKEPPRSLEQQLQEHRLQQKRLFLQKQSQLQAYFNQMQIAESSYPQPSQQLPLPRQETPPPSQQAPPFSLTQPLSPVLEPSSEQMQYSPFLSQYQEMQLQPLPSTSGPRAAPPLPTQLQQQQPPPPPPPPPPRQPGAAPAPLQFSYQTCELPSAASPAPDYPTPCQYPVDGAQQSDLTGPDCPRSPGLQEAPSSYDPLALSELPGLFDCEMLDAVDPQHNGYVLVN
Sequence of AP2-associated protein kinase 1 (Homo sapiens) (Q2M2I8 whole entry, looked up): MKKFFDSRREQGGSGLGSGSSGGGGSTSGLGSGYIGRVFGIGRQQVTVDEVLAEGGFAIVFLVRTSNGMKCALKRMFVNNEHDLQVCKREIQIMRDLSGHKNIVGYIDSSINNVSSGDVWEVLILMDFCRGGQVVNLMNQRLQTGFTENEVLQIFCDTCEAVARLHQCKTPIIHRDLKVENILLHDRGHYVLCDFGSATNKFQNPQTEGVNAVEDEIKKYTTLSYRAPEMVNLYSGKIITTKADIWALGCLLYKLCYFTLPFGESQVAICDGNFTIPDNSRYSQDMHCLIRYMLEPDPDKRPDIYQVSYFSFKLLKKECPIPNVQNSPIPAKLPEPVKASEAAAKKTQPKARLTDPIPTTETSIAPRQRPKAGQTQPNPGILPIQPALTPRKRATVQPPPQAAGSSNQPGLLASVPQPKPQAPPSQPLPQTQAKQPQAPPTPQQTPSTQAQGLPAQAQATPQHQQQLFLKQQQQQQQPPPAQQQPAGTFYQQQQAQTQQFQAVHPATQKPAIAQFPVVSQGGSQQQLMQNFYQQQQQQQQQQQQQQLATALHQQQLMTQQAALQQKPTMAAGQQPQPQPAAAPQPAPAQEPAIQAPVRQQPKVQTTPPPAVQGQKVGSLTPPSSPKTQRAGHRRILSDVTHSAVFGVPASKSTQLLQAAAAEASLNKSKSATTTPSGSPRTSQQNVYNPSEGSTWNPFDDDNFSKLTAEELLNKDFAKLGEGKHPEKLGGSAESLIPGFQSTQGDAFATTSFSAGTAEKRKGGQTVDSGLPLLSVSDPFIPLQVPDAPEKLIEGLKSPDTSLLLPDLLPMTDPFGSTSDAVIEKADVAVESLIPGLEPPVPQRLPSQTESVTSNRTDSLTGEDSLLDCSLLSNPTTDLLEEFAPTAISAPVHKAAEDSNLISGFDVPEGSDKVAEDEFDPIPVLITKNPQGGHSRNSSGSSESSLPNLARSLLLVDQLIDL

SMILES: CNCc1ccccc1-c1csc([C@H](C)Nc2nc(C)nc3cc(OC)c(OC)cc23)c1 [BAY-294]
- residual activity [1]: 100%
- residual activity [2]: 85%
- residual activity [3]: 100%
- residual activity [4]: 100%
- residual activity [5]: 95%
- pKi [6]: 5.98
- Ki [6]: 0.977 µM
- residual activity [7]: 94%
- residual activity [8]: 100%
- inhibition [9]: 49%
- residual activity [10]: 100%
- residual activity [11]: 100%
- residual activity [12]: 51%
- residual activity [13]: 100%
- inhibition [14]: 94.2%
- residual activity [15]: 90%
- residual activity [16]: 100%
- residual activity [17]: 100%
- residual activity [18]: 100%
- residual activity [19]: 100%
- residual activity [20]: 100%
- inhibition [21]: 71.8%
- residual activity [22]: 100%
- residual activity [23]: 100%
- residual activity [24]: 100%
- residual activity [25]: 100%
- residual activity [26]: 100%
- residual activity [27]: 100%
- inhibition [28]: 16%
- residual activity [29]: 100%
- residual activity [30]: 100%
- residual activity [31]: 94%
- residual activity [32]: 91%

SMILES: CNCc1ccccc1-c1csc([C@@H](C)Nc2nc(C)nc3cc(OC)c(OC)cc23)c1 [BAY-293]
- residual activity [1]: 83%
- residual activity [2]: 64%
- residual activity [3]: 100%
- residual activity [4]: 73%
- residual activity [5]: 85%
- pKi [6]: 5.59
- Ki [6]: 2.14 µM
- residual activity [7]: 95%
- residual activity [8]: 100%
- inhibition [9]: 22.6%
- residual activity [10]: 97%
- residual activity [11]: 100%
- residual activity [12]: 57%
- residual activity [13]: 91%
- inhibition [14]: 94.2%
- residual activity [15]: 89%
- residual activity [16]: 96%
- residual activity [17]: 97%
- residual activity [18]: 100%
- residual activity [19]: 95%
- residual activity [20]: 79%
- inhibition [21]: 73.7%
- residual activity [22]: 99%
- residual activity [23]: 100%
- residual activity [24]: 100%
- residual activity [25]: 82%
- residual activity [26]: 88%
- residual activity [27]: 89%
- inhibition [28]: 17.1%
- residual activity [29]: 100%
- residual activity [30]: 100%
- residual activity [31]: 92%
- residual activity [32]: 86%
